Laboratory results reported in ChEMBL document CHEMBL3228041, “Propiolaldehyde, a pargyline metabolite that irreversibly inhibits aldehyde dehydrogenase. Isolation from a hepatic microsomal system” (J Med Chem, 1979).
Activity calls are given as the source filed them. The rule behind the calls is not given here.

Key:
[1] = organism: Rattus norvegicus; assay: Inhibition of Sprague-Dawley rat liver mitochondrial aldehyde dehydrogenase at 1 mM after 5 mins at 0 degC in presence of 0.25 M sucrose relative to control
[2] = organism: Rattus norvegicus; assay: Inhibition of Sprague-Dawley rat liver mitochondrial aldehyde dehydrogenase at 1 mM at 38 degC in presence of 0.25 M sucrose relative to control; settings: TDE = time-dependent effect
[3] = organism: Rattus norvegicus; assay: Inhibition of Sprague-Dawley rat liver mitochondrial aldehyde dehydrogenase at 1 mM after 5 mins at 25 degC in presence of 0.25 M sucrose relative to control
[4] = system: Liver microsome; assay: Drug level in Sprague-Dawley rat liver microsomes treated with phenobarbital by GC-MS analysis in presence of NADPH; type: ADME
[5] = organism: Rattus norvegicus; assay: Inhibition of Sprague-Dawley rat liver mitochondrial aldehyde dehydrogenase assessed as complete inhibition at 1 mM measured after 5 to 10 mins at 38 degC in presence of 0.25 M sucrose
[6] = organism: Rattus norvegicus; assay: Inhibition of Sprague-Dawley rat liver mitochondrial aldehyde dehydrogenase at 1 mM measured immediately after compound addition at 38 degC in presence of 0.25 M sucrose relative to control
[7] = organism: Rattus norvegicus; assay: Irreversible inhibition of Sprague-Dawley rat liver mitochondrial aldehyde dehydrogenase at 1 mM incubated for 10 mins at 38 degC in presence of 0.25 M sucrose followed by compound washout measured relative to control
[8] = organism: Rattus norvegicus; assay: Induction of ethanol-derived blood acetaldehyde level in 0.1% phenobarbital for 8 days pretreated Sprague-Dawley rat measured after 2 hrs of acute ethanol dose; type: functional, organism-based

Compound	inhibition [1] [%]	inhibition [2]	inhibition [3] [%]	Drug metabolism [4]	inhibition [5]	inhibition [6] [%]	inhibition [7]	Activity [8]
C#CC=O [PROPYNAL]	32	tde	45	metabolite_detected	Active	43	Active	
C#CCN(C)Cc1ccccc1								Active
